This note sets out measurements from ChEMBL document CHEMBL2406925, “Confirmation of quinolone-induced formation of gyrase-DNA conjugates using AFM” (Bioorg Med Chem Lett, 2013).

Calls of active or inactive are those of the source. The rule behind the calls is not given here.

In test [1] the test system is Escherichia coli. In words: Stabilization of reversible Escherichia coli DNA gyrase-pBR322 DNA complex at 20 uM after 15 mins by AFM image analysis.
Test [2] has as its system Escherichia coli. In words: Induction of Escherichia coli DNA gyrase-mediated pBR322 DNA cleavage at 5 to 20 uM after 30 mins by agarose gel electrophoresis.

In the case of `CCn1cc(C(=O)O)c(=O)c2cc(F)c(N3CCNCC3)cc21`, the result in test [1] and in test [2] was Active.
